Measured values reported in US20030095958A1, “Inhibitors of bace” (priority 2001, published 2003).

The molecules below were run against BACE (Homo sapiens, UniProt P56817) (assay: Ki Determination for the Inhibition of BACE (FS-1 peptide fluorescence cleavage assay)). Details: apparent Ki; 50 nM BACE, 10 μM FS-1 substrate, 0.1M sodium acetate pH 4.5.
Format: biochemical
How it was run: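 Human BACE (50 nM) was preincubated 15 min at room temperature with compound (2% DMSO) in 0.1 M sodium acetate pH 4.5, then 10 μM FS-1 peptide was added. Cleavage was followed by fluorescence (ex 355/em 495 nm), and apparent Ki came from fitting to the integrated competitive tight-binding inhibition equation.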

BACE, sequence (P56817 46-501): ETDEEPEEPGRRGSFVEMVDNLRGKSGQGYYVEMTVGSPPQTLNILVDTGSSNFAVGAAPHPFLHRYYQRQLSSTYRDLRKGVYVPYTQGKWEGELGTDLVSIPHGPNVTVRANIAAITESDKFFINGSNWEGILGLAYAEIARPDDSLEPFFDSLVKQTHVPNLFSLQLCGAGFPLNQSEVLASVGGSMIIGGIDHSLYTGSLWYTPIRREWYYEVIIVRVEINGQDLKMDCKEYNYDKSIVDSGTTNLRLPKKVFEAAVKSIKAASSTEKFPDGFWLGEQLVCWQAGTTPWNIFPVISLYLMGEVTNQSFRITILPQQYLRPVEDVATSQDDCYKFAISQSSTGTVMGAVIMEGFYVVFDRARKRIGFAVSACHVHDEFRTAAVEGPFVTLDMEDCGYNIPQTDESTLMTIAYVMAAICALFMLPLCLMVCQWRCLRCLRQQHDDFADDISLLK

Ki, < 3 µM:
O=C(c1cccc2ccccc12)n1c2c(c3cc(OCc4ccc(OC(F)F)cc4)ccc31)CCNC2 [Compound 514, [6-(4-Difluoromethoxy-benzyloxy)-1,2,3,4-tetrahydro-b-carbolin-9-yl]-naphthalen-1-yl-methanone]
O=C(c1ccc2ccccc2c1)n1c2c(c3cc(OCc4ccc(OC(F)F)cc4)ccc31)CCNC2 [Compound 515, [6-(4-Difluoromethoxy-benzyloxy)-1,2,3,4-tetrahydro-b-carbolin-9-yl]-naphthalen-2-yl-methanone]
FC(F)Oc1ccccc1COc1ccc2c(c1)c1c(n2Cc2ccc3ccccc3c2)CNCC1 [Compound 516, 6-(2-Difluoromethoxy-benzyloxy)-9-naphthalen-2-ylmethyl-2,3,4,9-tetrahydro-1H-b-carboline]
O=C(c1cccc2ccccc12)n1c2c(c3cc(OCc4cc(C(F)(F)F)ccc4C(F)(F)F)ccc31)CCNC2 [Compound 517, [6-(2,5-Bis-trifluoromethyl-benzyloxy)-1,2,3,4-tetrahydro-b-carbolin-9-yl]-naphthalen-1-yl-methanone]
FC(F)Oc1ccccc1COc1ccc2c(c1)c1c(n2Cc2cccc3ccccc23)CNCC1 [Compound 518, 6-(2-Difluoromethoxy-benzyloxy)-9-naphthalen-1-ylmethyl-2,3,4,9-tetrahydro-1H-b-carboline]
c1ccc2cc(COc3ccc4c(c3)c3c(n4Cc4ccc5ccccc5c4)CNCC3)ccc2c1 [Compound 519, 6-(Naphthalen-2-ylmethoxy)-9-naphthalen-2-ylmethyl-2,3,4,9-tetrahydro-1H-b-carboline]
Ic1ccccc1COc1ccc2c(c1)c1c(n2Cc2cccc3ccccc23)CNCC1 [Compound 520, 6-(2-Iodo-benzyloxy)-9-naphthalen-1-ylmethyl-2,3,4,9-tetrahydro-1H-b-carboline]
Cc1c(COc2ccc3c(c2)c2c(n3Cc3cccc4ccccc34)CNCC2)cccc1C(F)(F)F [Compound 521, 6-(2-Methyl-3-trifluoromethyl-benzyloxy)-9-naphthalen-1-ylmethyl-2,3,4,9-tetrahydro-1H-b-carboline]
Cc1c(COc2ccc3c(c2)c2c(n3Cc3ccc4ccccc4c3)CNCC2)cccc1C(F)(F)F [Compound 522, 6-(2-Methyl-3-trifluoromethyl-benzyloxy)-9-naphthalen-2-ylmethyl-2,3,4,9-tetrahydro-1H-b-carboline]
Cc1c(COc2ccc3c(c2)c2c(n3C(=O)c3cccc4ccccc34)CNCC2)cccc1C(F)(F)F [Compound 523, [6-(2-Methyl-3-trifluoromethyl-benzyloxy)-1,2,3,4-tetrahydro-b-carbolin-9-yl]-naphthalen-1-yl-methanone]
Cc1c(COc2ccc3c(c2)c2c(n3C(=O)c3ccc4ccccc4c3)CNCC2)cccc1C(F)(F)F [Compound 524, [6-(2-Methyl-3-trifluoromethyl-benzyloxy)-1,2,3,4-tetrahydro-b-carbolin-9-yl]-naphthalen-2-yl-methanone]
COc1cc(COc2ccc3c(c2)c2c(n3Cc3cccc4ccccc34)CNCC2)cc(OC)c1 [Compound 525, 6-(3,5-Dimethoxy-benzyloxy)-9-naphthalen-1-ylmethyl-2,3,4,9-tetrahydro-1H-b-carboline]
COc1cc(COc2ccc3c(c2)c2c(n3C(=O)c3cccc4ccccc34)CNCC2)cc(OC)c1 [Compound 526, [6-(3,5-Dimethoxy-benzyloxy)-1,2,3,4-tetrahydro-b-carbolin-9-yl]-naphthalen-1-yl-methanone]
COc1cc(COc2ccc3c(c2)c2c(n3C(=O)c3ccc4ccccc4c3)CNCC2)cc(OC)c1 [Compound 527, [6-(3,5-Dimethoxy-benzyloxy)-1,2,3,4-tetrahydro-b-carbolin-9-yl]-naphthalen-2-yl-methanone]
O=C(c1cccc2ccccc12)n1c2c(c3cc(OCc4ccccc4I)ccc31)CCNC2 [Compound 528, [6-(2-Iodo-benzyloxy)-1,2,3,4-tetrahydro-b-carbolin-9-yl]-naphthalen-1-yl-methanone]
O=C(c1cccc2ccccc12)n1c2c(c3cc(OCc4ccccc4OC(F)F)ccc31)CCNC2 [Compound 529, [6-(2-Difluoromethoxy-benzyloxy)-1,2,3,4-tetrahydro-b-carbolin-9-yl]-naphthalen-1-yl-methanone]
O=C(c1ccc2ccccc2c1)n1c2c(c3cc(OCc4ccccc4OC(F)F)ccc31)CCNC2 [Compound 530, [6-(2-Difluoromethoxy-benzyloxy)-1,2,3,4-tetrahydro-b-carbolin-9-yl]-naphthalen-2-yl-methanone]
N#Cc1ccccc1-c1ccc(COc2ccc3c(c2)c2c(n3Cc3ccc4ccccc4c3)CNCC2)cc1 [Compound 531, 4′-(9-Naphthalen-2-ylmethyl-2,3,4,9-tetrahydro-1H-b-carbolin-6-yloxymethyl)-biphenyl-2-carbonitrile]
N#Cc1ccccc1-c1ccc(COc2ccc3c(c2)c2c(n3C(=O)c3cccc4ccccc34)CNCC2)cc1 [Compound 532, 4′-[9-(Naphthalene-1-carbonyl)-2,3,4,9-tetrahydro-1H-b-carbolin-6-yloxymethyl]-biphenyl-2-carbonitrile]
FC(F)(F)c1ccc(COc2ccc3c(c2)c2c(n3Cc3cccc4ccccc34)CNCC2)cc1 [Compound 533, 9-Naphthalen-1-ylmethyl-6-(4-trifluoromethyl-benzyloxy)-2,3,4,9-tetrahydro-1H-b-carboline]
FC(F)(F)c1ccc(COc2ccc3c(c2)c2c(n3Cc3ccc4ccccc4c3)CNCC2)cc1 [Compound 534, 9-Naphthalen-2-ylmethyl-6-(4-trifluoromethyl-benzyloxy)-2,3,4,9-tetrahydro-1H-b-carboline]
FC(F)(F)c1ccccc1COc1ccc2c(c1)c1c(n2Cc2ccc3ccccc3c2)CNCC1 [Compound 535, 9-Naphthalen-2-ylmethyl-6-(2-trifluoromethyl-benzyloxy)-2,3,4,9-tetrahydro-1H-b-carboline]
O=C(c1ccc2ccccc2c1)n1c2c(c3cc(OCc4ccc(C(F)(F)F)cc4)ccc31)CCNC2 [Compound 536, Naphthalen-2-yl-[6-(4-trifluoromethyl-benzyloxy)-1,2,3,4-tetrahydro-b-carbolin-9-yl]-methanone]
FC(F)(F)c1cccc(COc2ccc3c(c2)c2c(n3Cc3ccc4ccccc4c3)CNCC2)c1 [Compound 537, 9-Naphthalen-2-ylmethyl-6-(3-trifluoromethyl-benzyloxy)-2,3,4,9-tetrahydro-1H-b-carboline]
